This is an account of results in US20210403420A1, “BENZOATE COMPOUND” (SCOHIA PHARMA, INC., priority 2018, published 2021).

Test [1] concerns High fat diet-fed mice. Put plainly: Fecal protein concentration-increasing test using high fat diet-fed mouse. Type of test: in vivo. To be noted: Mus musculus, po, 24 h, 30 mg/kg oral, feces of first day of administration, vehicle group = 100, read-out: Fecal protein concentration-increasing rate. An excerpt: Test Example 2: Fecal Protein Concentration-Increasing Test Using High Fat Diet-Fed Mouse
High fat diet-fed mice (D12451 diet, male, 10- to 50-week old) were orally administered with a 0.5% methyl cellulose suspension containing a test compound (compound administration group, five mice per group) or a 0.5% methyl cellulose suspension (compound non-administration group (vehicle group), five mice per group), and whole feces were collected on the first day of administration. Dried feces were dissolved in 0.5 N NaOH, followed by centrifugation at 12,000 rpm. The protein concentration in the supernatant was then quantitatively measured (Lowry method), and the amount of protein contained in 1 g of feces was calculated as the fecal protein concentration (mg/g feces). The fecal protein concentration-increasing rate was calculated by the following expression.
Fecal protein concentration-increasing rate (%)=Fecal protein concentration of compound administration group/Fecal protein concentration of vehicle group×100

Test [2] has as its target T1, Human recombinant enteropeptidase (Homo sapiens, UniProt P98073).
T1 construct: purchased ITSI-Biosciences LLC #REN-260
In words: Human enteropeptidase inhibitory activity. Type of test: biochemical. To be noted: 1 μM test compound; fluorescence intensity at 2 hours after start of reaction; read-out: Inhibition rate at 1 μM. The protocol: Test Example 1: Human Enteropeptidase Inhibitory Activity
Human recombinant enteropeptidase (#REN-260, ITSI-Biosciences LLC) was diluted with an assay buffer (50 mM Tricine, pH 8.0, 0.01 (w/v) %, Tween 20, 10 mM CaCl2)) to prepare a 24 mU/mL enzyme solution. Subsequently, 5FAM-Abu-Gly-Asp-Asp-Asp-Lys-Ile-Val-Gly-Gly-Lys(CPQ2)-Lys-Lys-NH2 (CPC Scientific Inc.) was diluted with the assay buffer to prepare a 2.1 μM substrate solution. A test compound is dissolved in DMSO into a 10 mM solution, and the solution was diluted with the assay buffer to give a compound solution. To a 384-well black plate (#784076, Greiner Bio-One), 5 μL of the compound solution and 5 μL of the substrate solution were added and mixed, and 5 μL of the enzyme solution was then added to the mixture, followed by mixing to start the reaction. The fluorescence intensity was measured with a fluorescence plate reader EnVision (The Perkin-Elmer Corp.) at an excitation wavelength of 485 nm and a fluorescence wavelength of 535 nm. The same reaction as above was performed without the addition of the test compound (test compound non-addition group). Furthermore, the same reaction as above was performed without the addition of the test compound and the enzyme (control group). The inhibition rate was calculated using the fluorescence intensity at 2 hours after the start of the reaction by the following expression:
Inhibition rate (%)=(1−((fluorescence intensity of test compound addition group)−(fluorescence intensity of control group))/((fluorescence intensity of test compound non-addition group)−(fluorescence intensity of control group)))×100

T1 sequence (P98073 whole entry): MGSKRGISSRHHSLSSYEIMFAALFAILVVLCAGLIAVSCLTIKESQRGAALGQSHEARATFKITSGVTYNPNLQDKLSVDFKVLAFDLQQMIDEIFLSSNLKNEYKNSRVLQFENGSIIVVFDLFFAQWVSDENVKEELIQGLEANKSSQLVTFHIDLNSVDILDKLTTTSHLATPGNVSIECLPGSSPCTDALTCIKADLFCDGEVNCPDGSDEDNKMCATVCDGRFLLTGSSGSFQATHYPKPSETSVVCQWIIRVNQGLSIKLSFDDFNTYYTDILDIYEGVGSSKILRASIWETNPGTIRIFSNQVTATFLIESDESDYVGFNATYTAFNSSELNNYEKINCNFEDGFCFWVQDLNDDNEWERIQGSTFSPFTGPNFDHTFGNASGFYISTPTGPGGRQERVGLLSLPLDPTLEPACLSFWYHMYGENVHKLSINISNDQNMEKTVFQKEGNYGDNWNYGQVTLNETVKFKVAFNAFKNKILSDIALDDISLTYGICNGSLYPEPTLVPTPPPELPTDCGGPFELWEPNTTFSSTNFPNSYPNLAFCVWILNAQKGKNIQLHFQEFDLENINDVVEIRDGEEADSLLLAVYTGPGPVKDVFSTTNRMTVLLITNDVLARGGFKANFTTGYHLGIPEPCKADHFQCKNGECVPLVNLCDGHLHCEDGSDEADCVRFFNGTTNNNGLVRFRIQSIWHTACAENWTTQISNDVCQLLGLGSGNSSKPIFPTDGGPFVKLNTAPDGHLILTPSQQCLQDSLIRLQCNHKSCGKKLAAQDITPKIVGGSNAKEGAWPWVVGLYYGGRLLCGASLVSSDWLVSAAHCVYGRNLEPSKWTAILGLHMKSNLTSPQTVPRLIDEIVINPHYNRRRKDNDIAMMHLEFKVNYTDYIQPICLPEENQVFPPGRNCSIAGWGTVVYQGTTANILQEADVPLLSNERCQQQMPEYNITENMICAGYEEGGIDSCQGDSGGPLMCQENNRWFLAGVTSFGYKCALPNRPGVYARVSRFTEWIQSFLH

Consider `N=C(N)Nc1ccc(C(=O)Oc2cc(OCCOCCOCCOc3cc(OC(=O)c4ccc(NC(=N)N)cc4)cc(C(=O)N[C@H](CO)C(=O)O)c3)cc(C(=O)N[C@H](CO)C(=O)O)c2)cc1` [Example 10, (2R)-2-[[3-[2-[2-[2-[3-[[(1R)-1-Carboxy-2-hydroxyethyl]carbamoyl]-5-(4-guanidinobenzoyl)oxyphenoxy]ethoxy]ethoxy]ethoxy]-5-(4-guanidinobenzoyl)oxybenzoyl]amino]-3-hydroxypropanoic acid], for which the response vs control in vivo at 30 mg/kg in test [1] turned out to be 179%. In addition, the inhibition at 1 µM in test [2] is 92%.
With `N=C(N)Nc1ccc(C(=O)Oc2ccc(CCC(=O)N[C@H](CC(=O)O)C(=O)O)c(OCCOCCOc3cc(OC(=O)c4ccc(NC(=N)N)cc4)ccc3CCC(=O)N[C@H](CC(=O)O)C(=O)O)c2)cc1` [Example 13, (2R)-2-[3-[2-[2-[2-[2-[3-[[(1R)-1,2-Dicarboxyethyl]amino]-3-oxopropyl]-5-(4-guanidinobenzoyl)oxyphenoxy]ethoxy]ethoxy]-4-(4-guanidinobenzoyl)oxyphenyl]propanoylamino]butanedioic acid], the response vs control in vivo at 30 mg/kg in test [1] worked out at 150%. In addition, in test [2], the inhibition at 1 µM is 100%.
The like results for `N=C(N)Nc1ccc(C(=O)Oc2cc(OCCOc3cc(OC(=O)c4ccc(NC(=N)N)cc4)cc(C(=O)N[C@@H](CC(=O)O)C(=O)O)c3)cc(C(=O)N[C@@H](CC(=O)O)C(=O)O)c2)cc1` [Example 9, (2S)-2-[[3-[2-[3-[[(1S)-1,2-Dicarboxyethyl]carbamoyl]-5-(4-guanidinobenzoyl)oxyphenoxy]ethoxy]-5-(4-guanidinobenzoyl)oxybenzoyl]amino]butanedioic acid] were, in that order, 195% and 100%.
On to `N=C(N)Nc1ccc(C(=O)Oc2cc(OCCOCCOc3cc(OC(=O)c4ccc(NC(=N)N)cc4F)cc(C(=O)N[C@H](CC(=O)O)C(=O)O)c3)cc(C(=O)N[C@H](CC(=O)O)C(=O)O)c2)c(F)c1` [Example 18, (2R)-2-[[3-[2-[2-[3-[[(1R)-1,2-Dicarboxyethyl]carbamoyl]-5-(2-fluoro-4-guanidinobenzoyl)oxyphenoxy]ethoxy]ethoxy]-5-(2-fluoro-4-guanidinobenzoyl)oxybenzoyl]amino]butanedioic acid], for which the response vs control in vivo at 30 mg/kg in test [1] turned out to be 142%. Moreover, the inhibition at 1 µM in test [2] was determined as 100%.
The like results for `N=C(N)Nc1ccc(C(=O)Oc2cc(OCCOCCOCCOCCOCCOc3cc(OC(=O)c4ccc(NC(=N)N)cc4)cc(C(=O)N[C@@H](CC(=O)O)C(=O)O)c3)cc(C(=O)N[C@@H](CC(=O)O)C(=O)O)c2)cc1` [Example 2, (2S)-2-[[3-[2-[2-[2-[2-[2-[3-[[(1S)-1,2-Dicarboxyethyl]carbamoyl]-5-(4-guanidinobenzoyl)oxyphenoxy]ethoxy]ethoxy]ethoxy]ethoxy]ethoxy]-5-(4-guanidinobenzoyl)oxybenzoyl]amino]butanedioic acid] were, in that order, 142% and 98%.
The like results for `N=C(N)Nc1ccc(C(=O)Oc2cc(OCCOCCOc3cc(OC(=O)c4ccc(NC(=N)N)cc4)cc(C(=O)N[C@@H](CC(=O)O)C(=O)O)c3)cc(C(=O)N[C@@H](CC(=O)O)C(=O)O)c2)cc1` [Example 8, (2S)-2-[[3-[2-[2-[3-[[(1S)-1,2-Dicarboxyethyl]carbamoyl]-5-(4-guanidinobenzoyl)oxyphenoxy]ethoxy]ethoxy]-5-(4-guanidinobenzoyl)oxybenzoyl]amino]butanedioic acid ditrifluoroacetate] were, in that order, 210% and 100%.
